Data on 27 compounds can be found in patent US11066392B2, “Inhibitors of indoleamine 2,3-dioxygenase and methods of their use” (BRISTOL-MYERS SQUIBB COMPANY, priority 2017, dated 2021).

The experiment addresses indoleamine 2,3-dioxygenase (IDO) (Homo sapiens, UniProt P14902). The experiment in a line: HeLa cell-based indoleamine 2,3-dioxygenase (IDO) assay (kynurenine production, IFNγ-stimulated). The conditions noted are these: HeLa cells. The procedure: Assessment of inhibitor activity in HeLa cell-based indoleamine 2,3-dioxygenase (IDO) assay. HeLa (ATCC® CCL-2) cells were obtained from the ATCC® and cultured in Dulbecco's Modified Eagle Medium supplemented with 4.5 g/L glucose, 4.5 […] sodium pyruvate (#10-013-CV, Corning), 2 mM L-alanyl-L-glutamine dipeptide (#35050-061, Gibco), 100U/mL penicillin, 100 μg/mL streptomycin (#SV30010, HyClone) and 10% fetal bovine serum (#SH30071.03 HyClone). Cells were maintained in a humidified incubator at 37° C. in 5% CO2. […] After 24 hours, the media was aspirated and replaced with media containing IFNγ (#285-IF/CF, R&D Systems) at a final concentration of 25 ng/mL. A serial dilution of each test compound was added to the cells in a total volume of 200 μL of culture medium. After a further 48 hour incubation, 170 μL of supernatant was transferred from each well to a fresh 96-well plate. 12.1 μL of 6.1N trichloroacetic acid (#T0699, Sigma-Aldrich) was added to each well and mixed, followed by incubation at 65° C. for 20 minutes to hydrolyze N-formylkynurenine, the product of indoleamine 2,3-dioxygenase, to kynurenine. The reaction mixture was then centrifuged for 10 mins at 500×g to sediment the precipitate. 100 μL of the supernatant was transferred from each well to a fresh 96-well plate. 100 μl of 2% (w/v) p-dimethylaminobenzaldehyde (#15647-7, Sigma-Aldrich) in acetic acid (#A6283, Sigma-Aldrich) was added to each well mixed and incubated at room temperature for 20 mins. Kynurenine concentrations were determined by measuring absorbance at 480 nm and calibrating against an L-kynurenine (#K8625, Sigma-Aldrich) standard curve using a SPECTRAMAX® M2e microplate reader (Molecular Devices). The percentage activity at each inhibitor concentration was determined and IC50 values assessed using nonlinear regression. Activity for compounds described herein is provided in Table 1, wherein potency levels are provided as follows: (Potency: IDO IC50: […])

Setting [1] is: potency class, read-out: Patent Potency Hela IC50 A < 10 nM, B > 10 nM, C > 100 nM.
Setting [2] is: IFNγ 25 ng/mL, 48 hour incubation, read-out: IDO Hela IC50.

Read-outs that look alike come from different tables or passages of the source.

Broadly, the IC50 is the concentration that inhibits the measured activity by half.

Sequence of indoleamine 2,3-dioxygenase (IDO) (P14902 whole entry): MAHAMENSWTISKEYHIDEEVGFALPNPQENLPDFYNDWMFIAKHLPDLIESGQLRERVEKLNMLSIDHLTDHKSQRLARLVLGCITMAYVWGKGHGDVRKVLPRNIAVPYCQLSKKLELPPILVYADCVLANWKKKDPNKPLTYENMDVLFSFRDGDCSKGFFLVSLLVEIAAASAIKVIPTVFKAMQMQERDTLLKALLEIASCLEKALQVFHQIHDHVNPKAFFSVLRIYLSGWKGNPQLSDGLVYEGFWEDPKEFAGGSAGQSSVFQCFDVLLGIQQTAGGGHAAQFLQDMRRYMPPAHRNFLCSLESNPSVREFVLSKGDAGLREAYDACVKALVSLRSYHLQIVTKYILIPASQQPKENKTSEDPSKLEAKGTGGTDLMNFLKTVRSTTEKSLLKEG

In the case of `CCC(NC(=O)c1ccc(OC)nc1)C1CCC(c2cc[nH]c(=O)c2C(F)F)CC1` (single isomer, unassigned) [Example 64-1, N-(1-((1s,4s)-4-(3-(difluoromethyl)-2-oxo-1,2-dihydropyridin-4-yl)cyclohexyl)propyl)-6-methoxynicotinamide], the IC50 under setting [1] was more than 100 nM. On to `CCC(NC(=O)c1ccc(OC)nc1)C1CCC(c2ccnc(F)c2C)CC1` (single isomer, unassigned) [Example 68-2, N-(1-((1r,4r)-4-(2-Fluoro-3-methylpyridin-4-yl)cyclohexyl)propyl)-6-methoxynicotinamide], for which the IC50 under setting [1] was more than 100 nM.

For the compound `CCOC[C@@H](NC(=O)c1ccc(OC)nc1)[C@H]1CC[C@@H](c2ccnc3ccc(C(F)(F)F)cc32)CC1` (single isomer, unassigned) [Example 13d, N-(2-Ethoxy-1-(4-(6-(trifluoromethyl)quinolin-4-yl)cyclohexyl)ethyl)-6-methoxynicotinamide], the IC50 under setting [2] came to 940 nM. As to `COCC(NC(=O)c1ccc(OC)nc1)C1CCC(c2ccnc3ccc(F)cc23)CC1` (stereo not drawn) [Example 14b, N-(1-((1s,4s)-4-(6-Fluoroquinolin-4-yl)cyclohexyl)-2-methoxyethyl)-6-methoxynicotinamide], under setting [2], the IC50 stood at 10 nM.

Consider `CCC(NC(=O)c1ccc(OC)nc1)C1CCC(c2ccnc3cc(C(F)(F)F)ccc23)CC1` (single isomer, unassigned) [Example 19b, 6-Methoxy-N-(1-((1s,4s)-4-(7-(trifluoromethyl)quinolin-4-yl)cyclohexyl)propyl)nicotinamide], for which, under setting [2], the IC50 stood at 10 nM. With `CCOC[C@@H](NC(=O)c1ccc(OC)nc1)[C@H]1CC[C@@H](c2ccnc3ccc(C(F)(F)F)cc32)CC1` (single isomer, unassigned) [Example 13a, N-(2-Ethoxy-1-(4-(6-(trifluoromethyl)quinolin-4-yl)cyclohexyl)ethyl)-6-methoxynicotinamide], under setting [2], the IC50 came to 80 nM.

As for `CCC(NC(=O)c1ccc(OC)nc1)C1CCC(c2ccnc(OC)c2F)CC1` (stereo not drawn) [Example 22, N-(1-(4-(3-Fluoro-2-methoxypyridin-4-yl)cyclohexyl)propyl)-6-methoxynicotinamide], under setting [1], the concentration for half-maximal inhibition (IC50) is more than 100 nM. Consider `CC[C@@H](NC(=O)c1cnc(OC)nc1)[C@H]1CC[C@@H](c2ccnc3c(F)cccc32)CC1` (single isomer, unassigned) [Example 60d, N-(1-(4-(8-fluoroquinolin-4-yl)cyclohexyl)propyl)-2-methoxypyrimidine-5-carboxamide], for which, under setting [2], the IC50 worked out at 170 nM. The same measure, in the same setting: as for `COC[C@H](NC(=O)c1ccc(OC)nc1)[C@H]1CC[C@@H](c2ccnc(OC)c2C(F)F)CC1` (single isomer, unassigned) [Example 51b, N-(1-(4-(3-(difluoromethyl)-2-methoxypyridin-4-yl)cyclohexyl)-2-methoxyethyl)-6-methoxynicotinamide], the figure is 390 nM; as for `CCC(NC(=O)c1ccc(OC)nc1)C1CCC(c2ccnc3c(C(F)(F)F)cccc23)CC1` (single isomer, unassigned) [Example 18a, 6-Methoxy-N-(1-((1s,4s)-4-(8-(trifluoromethyl)quinolin-4-yl)cyclohexyl)propyl)nicotinamide], 830 nM.

`CC[C@@H](NC(=O)c1ccc(OC)nc1)[C@H]1CC[C@@H](c2ccnc3c(F)cccc32)CC1` (single isomer, unassigned) [Example 59c, N-(1-(4-(8-fluoroquinolin-4-yl)cyclohexyl)propyl)-6-methoxynicotinamide]: the IC50 under setting [2] stood at 330 nM. For `CC[C@@H](NC(=O)c1cnc(OC)nc1)[C@H]1CC[C@@H](c2ccnc3c(F)cccc32)CC1` (single isomer, unassigned) [Example 60c, N-(1-(4-(8-fluoroquinolin-4-yl)cyclohexyl)propyl)-2-methoxypyrimidine-5-carboxamide], the IC50 under setting [2] came out at 10 nM.

In the case of `CCC(NC(=O)c1ccc(OC)nc1)C1CCC(c2cccc(C(F)(F)F)n2)CC1` (single isomer, unassigned) [Example 47c, 6-methoxy-N-(1-(4-(6-(trifluoromethyl)pyridin-2-yl)cyclohexyl)propyl)nicotinamide], under setting [1], the IC50 is more than 100 nM.

Take `CCC(NC(=O)c1ccc(OC)nc1)C1CCC(c2ccnc3cc(C(F)(F)F)ccc23)CC1` (single isomer, unassigned) [Example 19a, 6-Methoxy-N-(1-((1s,4s)-4-(7-(trifluoromethyl)quinolin-4-yl)cyclohexyl)propyl)nicotinamide]: under setting [1], the 50% inhibitory concentration (IC50) is more than 100 nM. Consider `CCC(NC(=O)c1ccc(OC)nc1)C1CCC(c2cccc(C(F)(F)F)n2)CC1` (single isomer, unassigned) [Example 47a, 6-methoxy-N-(1-(4-(6-(trifluoromethyl)pyridin-2-yl)cyclohexyl)propyl)nicotinamide], for which, under setting [2], the IC50 amounted to 180 nM. For `COc1ccc(C(=O)NC(C)C2(O)CCC(c3ccnc4ccc(F)cc34)CC2)cn1` (single isomer, unassigned) [Example 62b, N-(1-((1r,4r)-4-(6-fluoroquinolin-4-yl)-1-hydroxycyclohexyl)ethyl)-6-methoxynicotinamide], the IC50 under setting [2] was found to be 20 nM. Still for that read-out and setting: the result for `CCC(NC(=O)c1ccc(OC)nc1)C1CCC(c2ccnc3c(F)cc(F)cc23)CC1` (single isomer, unassigned) [Example 57a] reads 830 nM. For `CCC(NC(=O)c1ccc(OC)nc1)C1CCC(c2cccc(=O)n2C)CC1` (single isomer, unassigned) [Example 32d, 6-Methoxy-N-(1-(4-(1-methyl-6-oxo-1,6-dihydropyridin-2-yl)cyclohexyl)propyl)nicotinamide], under setting [1], the 50% inhibitory concentration (IC50) is more than 100 nM.

Consider `CCC(NC(=O)c1ccc(OC)nc1)C1CCC(c2ccnc(OC)c2C(F)F)CC1` (single isomer, unassigned) [Example 24b, N-(1-((1s,4s)-4-(3-(Difluoromethyl)-2-methoxypyridin-4-yl)cyclohexyl)propyl)-6-methoxynicotinamide], for which the IC50 under setting [2] stood at 900 nM. `CCC(NC(=O)c1ccc(OC)nc1)C1CCC(c2ccnc3c(C(F)(F)F)cccc23)CC1` (single isomer, unassigned) [Example 18b, 6-Methoxy-N-(1-((1s,4s)-4-(8-(trifluoromethyl)quinolin-4-yl)cyclohexyl)propyl)nicotinamide]: the IC50 under setting [1] is less than 10 nM. As for `COCCOCC(NC(=O)c1ccc(OC)nc1)C1CCC(c2ccnc3ccc(F)cc23)CC1` (single isomer, unassigned) [Example 15b, N-(1-((1s,4s)-4-(6-Fluoroquinolin-4-yl)cyclohexyl)-2-(2-methoxyethoxy)ethyl)-6-methoxynicotinamide], under setting [2], the IC50 is 10 nM. Take `CCC(NC(=O)c1ccc(OC)nc1)[C@H]1CC[C@H](c2ccnc(F)c2C)CC1` (mixture of isomers) [Example 67, (±)-N-(1-((1r,4r)-4-(2-fluoro-3-methylpyridin-4-yl)cyclohexyl)propyl)-6-methoxynicotinamide]: the 50% inhibitory concentration (IC50) under setting [1] is more than 100 nM. On the same count and under the same terms, as for `COc1ccc(C(=O)N[C@H](CC2(C)COC2)[C@H]2CC[C@@H](c3ccnc4ccc(C(F)(F)F)cc43)CC2)cn1` (single isomer, unassigned) [Example 17c, 6-Methoxy-N-(2-(3-methyloxetan-3-yl)-1-(4-(6-(trifluoromethyl)quinolin-4-yl)cyclohexyl)ethyl)nicotinamide], the figure is more than 100 nM.

On to `CCC(NC(=O)c1ccc(OC)nc1)C1CCC(c2ccnc(F)c2C)CC1` (single isomer, unassigned) [Example 27a, N-(1-((1s,4s)-4-(2-Fluoro-3-methylpyridin-4-yl)cyclohexyl)propyl)-6-methoxynicotinamide], for which, under setting [2], the concentration for half-maximal inhibition (IC50) came to 490 nM. In the case of `CCC(NC(=O)c1ccc(OC)nc1)C1CCC(c2ccnc(F)c2C)CC1` (single isomer, unassigned) [Example 68-1, N-(1-((1r,4r)-4-(2-Fluoro-3-methylpyridin-4-yl)cyclohexyl)propyl)-6-methoxynicotinamide], the IC50 under setting [1] is more than 10 nM. For the compound `CCC(NC(=O)c1cnc(OC)nc1)C1CCC(c2ccnc3c(F)cc(F)cc23)CC1` (single isomer, unassigned) [Example 58a], the IC50 under setting [2] is 310 nM. As for `CC[C@@H](NC(=O)c1ccc(OC)nc1)[C@H]1CC[C@@H](c2ccnc3c(F)cccc32)CC1` (single isomer, unassigned) [Example 59a, N-(1-(4-(8-fluoroquinolin-4-yl)cyclohexyl)propyl)-6-methoxynicotinamide], the IC50 under setting [2] was 100 nM.
